In patent publication US11787796B2, “Plasma Kallikrein inhibitors and uses thereof” (Takeda Pharmaceutical Company Limited, priority 2019, dated 2023):

What follows are compounds tested against human activated kallikrein enzyme (Homo sapiens (Human), UniProt P03952) (assay: Plasma kallikrein inhibition assay with fluorogenic peptide substrate, 500 pM activated kallikrein format). Details: 500 pM activated kallikrein; 300 uM Pro-Phe-Arg-7-amido-4-methylcoumarin substrate; 30 min preincubation, 10 min reaction at RT; read-out: Primary Dose Response Assay: Average EC50.
Chain of human activated kallikrein enzyme (P03952 391-638): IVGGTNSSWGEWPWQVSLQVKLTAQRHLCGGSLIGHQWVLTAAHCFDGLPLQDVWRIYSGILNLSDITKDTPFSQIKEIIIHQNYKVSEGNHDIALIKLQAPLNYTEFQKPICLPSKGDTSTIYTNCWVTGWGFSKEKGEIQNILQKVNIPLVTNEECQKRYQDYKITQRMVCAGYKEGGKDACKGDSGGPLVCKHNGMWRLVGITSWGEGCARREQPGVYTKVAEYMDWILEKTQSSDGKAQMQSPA
Chain of human activated kallikrein enzyme (P03952 20-390 partner): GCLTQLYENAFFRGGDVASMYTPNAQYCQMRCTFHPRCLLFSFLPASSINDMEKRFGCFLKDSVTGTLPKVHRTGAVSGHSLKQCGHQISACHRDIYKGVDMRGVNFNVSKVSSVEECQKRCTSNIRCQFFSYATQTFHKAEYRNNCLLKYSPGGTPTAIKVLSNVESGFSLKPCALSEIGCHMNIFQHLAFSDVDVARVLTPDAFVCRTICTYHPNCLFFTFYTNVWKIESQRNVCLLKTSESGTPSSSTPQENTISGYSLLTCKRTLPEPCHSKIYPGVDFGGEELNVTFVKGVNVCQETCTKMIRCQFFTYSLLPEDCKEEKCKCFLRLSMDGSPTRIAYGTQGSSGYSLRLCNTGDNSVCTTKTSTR
Assay type: biochemical
Procedure, shortened: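 Pro-Phe-Arg-7-amido-4-methylcoumarin substrate (300 uM) started reactions after a 30 min RT enzyme–inhibitor preincubation. This format used 500 pM activated human kallikrein in Tris pH 7.5 buffer with EDTA, NaCl, PEG-400 and Triton X-100. AMC fluorescence (380/460 nm) was measured after 10 min at RT.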
In the case of `COc1ccc(-c2c[nH]nn2)c(CNC(=O)c2cn(Cc3cn4cc(C5CC5)ccc4n3)nn2)c1F` [Example I-50], the EC50 is reported as > 7.1 µM. Compound `O=C(NCc1c(N2CC3(COC3)C2)ccc(Cl)c1F)c1cnn(Cc2cn3cc(C4CC4)ccc3n2)c1` [Example I-114, N-(3-chloro-2-fluoro-6-(2-oxa-6-azaspiro[3.3]heptan-6-yl)benzyl)-1-((6-cyclopropylimidazo[1,2-a]pyridin-2-yl)methyl)-1H-pyrazole-4-carboxamide] has an EC50 of 0.1 to 2 µM. For `CCOC(=O)CCc1cc(C2CC2)cn2cc(Cn3cc(C(=O)NCc4c(-n5cnnn5)ccc(Cl)c4F)nn3)nc12` [Example I-113, ethyl 3-(2-((4-((3-chloro-2-fluoro-6-(1H-tetrazol-1-yl)benzyl)carbamoyl)-1H-1,2,3-triazol-1-yl)methyl)-6-cyclopropylimidazo[1,2-a]pyridin-8-yl)propanoate], the EC50 was ≤ 0.001 µM. `O=C(NCc1cn(Cc2cn3cc(C4CC4)ccc3n2)nn1)c1ncc2c(F)c(Cl)ccn12` [Example I-56, 7-chloro-N-((1-((6-cyclopropylimidazo[1,2-a]pyridin-2-yl)methyl)-1H-1,2,3-triazol-4-yl)methyl)-8-fluoroimidazo[1,5-a]pyridine-3-carboxamide] was tested, and the EC50 was > 7.1 µM. For `O=C(NC1Cc2ccc(Cl)cc21)c1cn(Cc2cn3cc(C4CC4)ccc3n2)nn1` (stereo not shown) [Example I-151, N-(4-chlorobicyclo[4.2.0]octa-1(6),2,4-trien-7-yl)-1-((6-cyclopropylimidazo[1,2-a]pyridin-2-yl)methyl)-1H-1,2,3-triazole-4-carboxamide], the EC50 was 0.1 to 2 µM. With `Cc1cc(C(=N)N)cc(C)c1CNC(=O)c1cn(Cc2cn3cc(C4CC4)ccc3n2)nn1` [Example I-115, N-(4-carbamimidoyl-2,6-dimethylbenzyl)-1-((6-cyclopropylimidazo[1,2-a]pyridin-2-yl)methyl)-1H-1,2,3-triazole-4-carboxamide] the EC50 was ≤ 0.001 µM. With `COc1ccc(-n2cnnn2)c(CNC(=O)c2ccn(Cc3cn4cc(C5CC5)ccc4n3)c2)c1F` [Example I-54, 1-((6-cyclopropylimidazo[1,2-a]pyridin-2-yl)methyl)-N-(2-fluoro-3-methoxy-6-(1H-tetrazol-1-yl)benzyl)-1H-pyrrole-3-carboxamide] the EC50 was ≤ 0.001 µM. Compound `COc1ccc(-c2ccnnc2)c(CNC(=O)c2cn(Cc3cn4cc(C5CC5)ccc4n3)nn2)c1F` [Example I-86, 1-((6-cyclopropylimidazo[1,2-a]pyridin-2-yl)methyl)-N-(2-fluoro-3-methoxy-6-(pyridazin-4-yl)benzyl)-1H-1,2,3-triazole-4-carboxamide] has an EC50 of 0.001 to 0.01 µM. `O=S(=O)(NCCc1cccc(Cl)c1)c1cnn(Cc2cn3cc(C4CC4)ccc3n2)c1` [Example I-44, N-(3-chlorophenethyl)-1-((6-cyclopropylimidazo[1,2-a]pyridin-2-yl)methyl)-1H-pyrazole-4-sulfonamide] was tested, and the EC50 was > 7.1 µM. With `O=C(NCc1cc(=O)[nH]c2ccc(Br)cc12)c1cnn(Cc2cn3cc(C4CC4)ccc3n2)c1` [Example I-122, N-((6-bromo-2-oxo-1,2-dihydroquinolin-4-yl)methyl)-1-((6-cyclopropylimidazo[1,2-a]pyridin-2-yl)methyl)-1H-pyrazole-4-carboxamide] the EC50 was 0.001 to 0.01 µM. Work on `O=C(NCc1nccc(OC(F)F)c1F)c1cn(Cc2cn3cc(C4CC4)cc(N4CCN(CC(F)(F)F)CC4)c3n2)nn1` [Example I-152, 1-((6-cyclopropyl-8-(4-(2,2,2-trifluoroethyl)piperazin-1-yl)imidazo[1,2-a]pyridin-2-yl)methyl)-N-((4-(difluoromethoxy)-3-fluoropyridin-2-yl)methyl)-1H-1,2,3-triazole-4-carboxamide] yielded an EC50 of 0.1 to 2 µM. `COc1ccc(C#N)c(CNC(=O)c2cn(Cc3cn4cc(C5CC5)cc(CCC(=O)O)c4n3)nn2)c1F` [Example I-107, 3-(2-((4-((6-cyano-2-fluor-3-methoxybenzyl)carbamoyl)-1H-1,2,3-triazol-1-yl)methyl)-6-cyclopropylimidazo[1,2-a]pyridin-8-yl)propanoic Acid] was tested, and the EC50 was ≤ 0.001 µM.

Same assay, conditions: comparative compounds (Table III); 500 pM activated kallikrein format; read-out: Primary Dose Response Assay: Average EC50
For `NC(=O)c1cnn(Cc2cn3cc(C4CC4)ccc3n2)c1`, the EC50 was > 7.1 µM.
